In ChEMBL document CHEMBL4414627, “Ealamines A-H, a Series of Naphthylisoquinolines with the Rare 7,8'-Coupling Site, from the Congolese Liana Ancistrocladus ealaensis, Targeting Pancreatic Cancer Cells” (J Nat Prod, 2019):
Calls of active or inactive are those of the source. The rule behind the calls is not given here.

Legend:
Plasmodium falciparum [1] = assay: Antiprotozoal activity against chloroquine and pyrimethamine-resistant erythrocytic stage of Plasmodium falciparum K1 assessed as reduction in [3H]hypoxanthine incorporation preincubated for 48 hrs followed by [3H]hypoxanthine addition and measured after 24 hrs by liquid scintillation counting method; assay type: functional, organism-based
L6 = assay: Cytotoxicity against rat L6 cells assessed as reduction in cell viability incubated for 72 hrs by Alamar blue staining-based fluorometric analysis
[2] = Selectivity index, ratio of IC50 for rat L6 cells to IC50 for chloroquine and pyrimethamine-resistant erythrocytic stage of Plasmodium falciparum K1; assay type: toxicity; conditions: for selectivity ratio: L6 cells, read-out: Ratio IC50
PANC-1 [3] = assay: Cytotoxicity against nutrient deprived human PANC1 cells assessed as induction of cell killing incubated for 24 hrs by WST-8 assay; assay type: functional
PANC-1 [4] = assay: Cytotoxicity against DMEM cultured human PANC1 cells assessed as reduction in cell viability at PC50 incubated for 24 hrs by WST-8 assay; assay type: cell-based; conditions: panc-1, 24 h
Trypanosoma cruzi = assay: Antiprotozoal activity against Trypanosoma cruzi Tulahuen C4 amastigotes infected in rat L6 cells incubated for 96 hrs by beta-galactosidase reporter gene assay; assay type: functional, organism-based
Plasmodium falciparum [5] = assay: Antiprotozoal activity against chloroquine-sensitive Plasmodium falciparum NF54; assay type: functional, organism-based
[6] = system: Trypanosoma brucei rhodesiense; assay: Antiprotozoal activity against Trypanosoma brucei rhodesiense STIB900 trypomastigotes incubated for 72 hrs by Alamar blue staining-based fluorometric analysis; assay type: functional, organism-based
Leishmania donovani = assay: Antiprotozoal activity against Leishmania donovani MHOM-ET-67/L82 axenic amastigotes incubated for 72 hrs by Alamar blue staining-based fluorometric analysis; assay type: functional, organism-based
[7] = Selectivity index, ratio of IC50 for rat L6 cells to IC50 for chloroquine-sensitive Plasmodium falciparum NF54; assay type: toxicity; conditions: read-out: Ratio IC50
PANC-1 [8] = assay: Induction of cell morphological changes in nutrient deprived human PANC1 cells incubated for 24 hrs by acridine orange/ethidium bromide double staining-based fluorescence/phase contrast mode based EVOS FL digital microscopic analysis; assay type: functional
PANC-1 [9] = assay: Induction of cell morphological changes in human PANC1 cells assessed as loss of membrane integrity at 12.5 uM incubated for 24 hrs in nutrient deprived medium by acridine orange/ethidium bromide double staining-based fluorescence/phase contrast mode based EVOS FL digital microscopic analysis; assay type: functional
PANC-1 [10] = assay: Induction of cell death in nutrient deprived human PANC1 cells at 12.5 uM incubated for 24 hrs by acridine orange/ethidium bromide double staining-based fluorescence/phase contrast mode based EVOS FL digital microscopic analysis; assay type: functional
PANC-1 [11] = assay: Induction of cell morphological changes in nutrient deprived human PANC1 cells assessed as cell swelling at 25 uM incubated for 24 hrs by acridine orange/ethidium bromide double staining-based fluorescence/phase contrast mode based EVOS FL digital microscopic analysis; assay type: functional
PANC-1 [12] = assay: Induction of cell morphological changes in nutrient deprived human PANC1 cells assessed as cell rounding at 25 uM incubated for 24 hrs by acridine orange/ethidium bromide double staining-based fluorescence/phase contrast mode based EVOS FL digital microscopic analysis; assay type: functional
[13] = Trypanosoma cruzi, Tulahuen C4, L6, 96 h
[14] = Trypanosoma brucei, STIB900, 72 h
[15] = Leishmania donovani, MHOM-ET-67/L82, 72 h

In the case of COc1cc(O)c(-c2cc(-c3cc(-c4c(O)cc5c(c4OC)[C@H](C)N[C@H](C)C5)c4cc(C)cc(OC)c4c3O)c(O)c3c(OC)cc(C)cc23)c2c1[C@H](C)N[C@H](C)C2, the IC50 (Plasmodium falciparum [1]; Plasmodium falciparum, K1) is reported as 0.0063 µM, the IC50 (L6; Rattus norvegicus, L6, 72 h) is reported as 6 µM and the selectivity ratio [2] is reported as 1000.
For COc1c(-c2ccc(OC)c3c(OC)cc(C)cc23)c(O)cc2c1[C@@H](C)N[C@H](C)C2 [listing 1 of 2 here], the Activity (PANC-1 [3]) was “Dose-dependent effect”.
For COc1c(-c2ccc(O)c3c(OC)cc(C)cc23)c(O)cc2c1[C@H](C)N[C@H](C)C2, the Activity (PANC-1 [3]) was “Dose-dependent effect”, the PC50 (PANC-1 [3]) was 33.4 µM and the Activity (PANC-1 [4]) was “Non-Toxic”.
O=C(Cn1ccnc1[N+](=O)[O-])NCc1ccccc1 [BENZNIDAZOLE] showed an IC50 (Trypanosoma cruzi; [13]) of 3.6 µM.
With COc1c(-c2ccc(OC)c3c(OC)cc(C)cc23)c(O)cc2c1[C@@H](C)N[C@H](C)C2 [listing 2 of 2 here] the IC50 (Plasmodium falciparum [1]; Plasmodium falciparum, K1) was 1.4 µM, the IC50 (Plasmodium falciparum [5]; Plasmodium falciparum, NF54) was 4.9 µM and the IC50 (Trypanosoma cruzi; [13]) was 123 µM. The IC50 [6, 14] was 7.8 µM, the IC50 (Leishmania donovani) was 53.4 µM and the IC50 (L6; l6) was 20.9 µM. For the same compound, the “Ratio IC50” value [2] was 15 and the PC50 (PANC-1 [3]) was 30.6 µM.
For COc1c(-c2ccc(O)c3c(OC)cc(C)cc23)c(O)cc2c1[C@@H](C)N[C@H](C)C2, the IC50 (Plasmodium falciparum [5]; Plasmodium falciparum, NF54) was 0.84 µM, the IC50 (Trypanosoma cruzi; [13]) was 102 µM and the IC50 [6, 14] was 9.4 µM. The IC50 (Leishmania donovani; [15]) was > 250 µM, the IC50 (L6; Rattus norvegicus, L6, 72 h) was 47.7 µM and the selectivity ratio [7] was 56.8. The Activity (PANC-1 [3]) was “Dose-dependent effect”, the PC50 (PANC-1 [3]) was 9.9 µM and the Activity (PANC-1 [8]) was “Dose-dependent effect”. For the same compound, the Activity (PANC-1 [9]) was “Active”, the Activity (PANC-1 [10]) was “Active” and the Activity (PANC-1 [11]) was 100%. For the same compound, the Activity (PANC-1 [12]) was 100% and the Activity (PANC-1 [4]) was “Non-Toxic”.
In the case of COc1c2c(cc(O)c1-c1ccc(O)c3c(OC)cc(C)cc13)C[C@@H](C)N=C2C, the Activity (PANC-1 [3]) is reported as “Dose-dependent effect”, the PC50 (PANC-1 [3]) is reported as 37.8 µM and the Activity (PANC-1 [4]) is reported as “Non-Toxic”.
With COc1cc2c(c(O)c1-c1ccc(OC)c3c(OC)cc(C)cc13)[C@@H](C)N[C@H](C)C2 the IC50 (Plasmodium falciparum [1]; Plasmodium falciparum, K1) was 8.2 µM, the IC50 (Plasmodium falciparum [5]; Plasmodium falciparum, NF54) was 22.2 µM and the IC50 (Trypanosoma cruzi; [13]) was 225 µM. The IC50 [6, 14] was 106 µM, the IC50 (Leishmania donovani; [15]) was > 250 µM and the IC50 (L6; Rattus norvegicus, L6, 72 h) was > 250 µM. The selectivity ratio [2] was > 30, the Activity (PANC-1 [3]) was “Dose-dependent effect” and the PC50 (PANC-1 [3]) was 60.4 µM. The Activity (PANC-1 [4]) was “Non-Toxic”.
In the case of COc1c(-c2ccc(OC)c3c(OC)cc(C)cc23)c(O)cc2c1[C@@H](C)N[C@H](C)C2 (single isomer, unassigned; atropisomer) [listing 1 of 2 here], the IC50 (Plasmodium falciparum [1]) is reported as 1.6 µM, the IC50 (Plasmodium falciparum [5]) is reported as 6.3 µM and the IC50 (Trypanosoma cruzi) is reported as 73.4 µM. For the same compound, the IC50 [6] was 9.8 µM, the IC50 (Leishmania donovani) was 170 µM and the IC50 (L6; l6) was 9.1 µM. For the same compound, the “Ratio IC50” value [2] was 5.6, the PC50 (PANC-1 [3]) was 12.5 µM and the Activity (PANC-1 [4]) was “Non-Toxic”.
In the case of COc1c(-c2ccc(OC)c3c(OC)cc(C)cc23)c(O)cc2c1[C@@H](C)N[C@H](C)C2 (single isomer, unassigned; atropisomer) [listing 2 of 2 here], the Activity (PANC-1 [3]) is reported as “Dose-dependent effect”.
In the case of COc1cc(C[C@H]2C(=O)OC[C@@H]2Cc2ccc(OC)c(OC)c2)ccc1O [ARCTIGENIN], the PC50 (PANC-1 [3]) is reported as 0.8 µM and the Activity (PANC-1 [4]) is reported as “Non-Toxic”.
